# Assay results published in US20230024302A1, “2,3,5-TRISUBSTITUTED PYRAZOLO[1,5-A]PYRIMIDINE COMPOUNDS” (Arcus Biosciences, Inc., priority 2019, published 2023).
# Key:
# [1] = target: T1, PI3Kγ (p120γ) (Homo sapiens, UniProt P48736); test: Inhibition of PI3K kinase activity (ADP Glo), PI3Kγ; details: Table 1, p120γ, read-out: biochemical potency (PI3Kγ IC50)
# T1 construct: purchased Promega V1761
# Procedure, shortened: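 Recombinant p120γ (8 nM, 2× stock) was preincubated with compound for 1 h at rt in HEPES pH 7.4, NaCl, MgCl2 and 0.05% BSA. Reaction was started with PIP2 (0.1 mg/ml, 2×) and ATP (50 μM, 2×) and ran 60 min at rt. ADP formed was read by ADP-Glo luminescence, and IC50 came from a 4-parameter fit.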
# [2] = target: T2, PI3Kγ (Homo sapiens, UniProt P48736); test: PI3Kγ cellular assay in THP-1 cells (AKT pS473 AlphaLISA); format: cell-based; details: Table 1, rhMCP-1 stimulated AKT pS473, read-out: cellular potency (PI3Kγ IC50)
# T2 construct: host or cells: THP-1
# T2 sequence (P48736 whole entry): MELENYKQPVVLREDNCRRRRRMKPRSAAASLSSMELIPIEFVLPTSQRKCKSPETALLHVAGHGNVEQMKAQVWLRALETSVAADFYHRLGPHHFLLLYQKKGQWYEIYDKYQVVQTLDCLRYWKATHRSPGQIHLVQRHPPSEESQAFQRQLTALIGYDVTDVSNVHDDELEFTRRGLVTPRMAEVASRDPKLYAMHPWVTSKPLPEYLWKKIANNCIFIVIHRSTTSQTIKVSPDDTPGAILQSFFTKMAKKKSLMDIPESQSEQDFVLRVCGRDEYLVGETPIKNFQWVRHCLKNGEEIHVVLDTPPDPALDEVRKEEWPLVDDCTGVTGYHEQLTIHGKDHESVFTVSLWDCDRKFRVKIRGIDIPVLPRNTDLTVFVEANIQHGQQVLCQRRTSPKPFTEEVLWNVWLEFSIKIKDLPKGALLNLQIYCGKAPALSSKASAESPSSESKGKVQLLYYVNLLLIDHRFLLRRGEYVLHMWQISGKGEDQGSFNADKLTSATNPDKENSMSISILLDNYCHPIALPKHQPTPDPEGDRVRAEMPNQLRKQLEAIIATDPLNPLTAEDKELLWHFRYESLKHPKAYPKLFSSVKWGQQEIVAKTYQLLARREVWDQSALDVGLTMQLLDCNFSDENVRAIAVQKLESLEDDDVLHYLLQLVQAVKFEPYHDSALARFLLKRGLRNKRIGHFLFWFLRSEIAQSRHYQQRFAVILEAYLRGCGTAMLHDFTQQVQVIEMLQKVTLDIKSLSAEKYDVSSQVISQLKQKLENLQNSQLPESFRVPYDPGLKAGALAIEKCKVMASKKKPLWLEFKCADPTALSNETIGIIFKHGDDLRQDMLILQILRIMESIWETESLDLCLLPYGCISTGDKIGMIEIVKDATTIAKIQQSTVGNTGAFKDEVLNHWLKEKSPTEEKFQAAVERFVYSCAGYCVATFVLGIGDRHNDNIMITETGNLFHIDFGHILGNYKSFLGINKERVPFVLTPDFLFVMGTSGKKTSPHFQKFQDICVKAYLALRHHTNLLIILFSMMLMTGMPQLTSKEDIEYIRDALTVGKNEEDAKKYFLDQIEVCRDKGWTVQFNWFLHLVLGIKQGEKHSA
# Procedure, shortened: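 Serum-starved THP-1 cells (1.8×10^5/well, serum-free DMEM) treated with compounds from 4 nM to 30 μM in 2% DMSO, then stimulated and lysed.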
# T1 sequence (P48736 whole entry): as above
IC50 [1] [nM],IC50 [2] [nM],Compound
< 100,< 100,"C[C@@H](C1CC1)N1Cc2cc(-c3ccn4nc(N)c(C(=O)N[C@H]5CC[C@@](C)(O)CC5)c4n3)cc(N3CC[C@@H](O)C3)c2C1=O [Example 151, 2-Amino-5-{2-[(1S)-1-cyclopropylethyl]-7-[(3R)-3-hydroxypyrrolidin-1-yl]-1-oxo-2,3-dihydro-1H-isoindol-5-yl}-N-[cis-4-hydroxy-4-methylcyclohexyl]pyrazolo[1,5-a]pyrimidine-3-carboxamide]"
< 100,< 100,"C[C@@H](C1CC1)N1Cc2cc(-c3ccn4nc(N)c(C(=O)NC5CC5)c4n3)cc(N3CC[C@H](O)C3)c2C1=O [Example 152, 2-Amino-N-cyclopropyl-5-{2-[(1S)-1-cyclopropylethyl]-7-[(3S)-3-hydroxypyrrolidin-1-yl]-1-oxo-2,3-dihydro-1H-isoindol-5-yl}pyrazolo[1,5-a]pyrimidine-3-carboxamide]"
< 100,< 100,"C[C@@H](C1CC1)N1Cc2cc(-c3ccn4nc(N)c(C(=O)N[C@H]5CC[C@](O)(C(F)(F)F)CC5)c4n3)cc(N3CC[C@@H](O)C3)c2C1=O [Example 153, 2-Amino-5-{2-[(1S)-1-cyclopropylethyl]-7-[(3R)-3-hydroxypyrrolidin-1-yl]-1-oxo-2,3-dihydro-1H-isoindol-5-yl}-N-[cis-4-hydroxy-4-(trifluoromethyl)cyclohexyl]pyrazolo[1,5-a]pyrimidine-3-carboxamide]"
< 100,< 100,"C[C@@H](C1CC1)N1Cc2cc(-c3ccn4nc(N)c(C(=O)N[C@H]5CC[C@@](C)(O)CC5)c4n3)cc(N3CCOCC3)c2C1=O [Example 154, 2-Amino-5-{2-[(1S)-1-cyclopropylethyl]-7-(morpholin-4-yl)-1-oxo-2,3-dihydro-1H-isoindol-5-yl}-N-[cis-4-hydroxy-4-methylcyclohexyl]pyrazolo[1,5-a]pyrimidine-3-carboxamide]"
< 100,< 100,"C[C@@H](C1CC1)N1Cc2cc(-c3ccn4nc(N)c(C(=O)NC5CC5)c4n3)cc(OCC(F)(F)F)c2C1=O [Example 155, 2-Amino-N-cyclopropyl-5-{2-[(1S)-1-cyclopropylethyl]-1-oxo-7-(2,2,2-trifluoroethoxy)-2,3-dihydro-1H-isoindol-5-yl}pyrazolo[1,5-a]pyrimidine-3-carboxamide]"
< 100,< 100,"C[C@H](CO)NC(=O)c1c(N)nn2ccc(-c3cc4c(c(OCC(F)(F)F)c3)C(=O)N([C@@H](C)C3CC3)C4)nc12 [Example 156, 2-Amino-5-{2-[(1S)-1-cyclopropylethyl]-1-oxo-7-(2,2,2-trifluoroethoxy)-2,3-dihydro-1H-isoindol-5-yl}-N-[(2R)-1-hydroxypropan-2-yl]pyrazolo[1,5-a]pyrimidine-3-carboxamide]"

# The next lines start with the molecule.
Compound,IC50 [1] [nM],IC50 [2] [nM]
"CNS(=O)(=O)c1cc(-c2ccn3nc(N)c(C(=O)N[C@H]4C[C@H](O)C4)c3n2)cc2c1C(=O)N([C@@H](C)C1CC1)C2 [Example 141, 2-Amino-5-{2-[(1S)-1-cyclopropylethyl]-7-(methylsulfamoyl)-1-oxo-2,3-dihydro-1H-isoindol-5-yl}-N-[trans-3-hydroxycyclobutyl]pyrazolo[1,5-a]pyrimidine-3-carboxamide]",< 100,< 100
"CNS(=O)(=O)c1cc(-c2ccn3nc(N)c(C(=O)NC4CC4)c3n2)cc2c1C(=O)N([C@@H](C)C1CC1)C2 [Example 142, 2-Amino-N-cyclopropyl-5-{2-[(1S)-1-cyclopropylethyl]-7-(methylsulfamoyl)-1-oxo-2,3-dihydro-1H-isoindol-5-yl}pyrazolo[1,5-a]pyrimidine-3-carboxamide]",< 100,< 100
"CCNS(=O)(=O)c1cc(-c2ccn3nc(N)c(C(=O)NC4CC4)c3n2)cc2c1C(=O)N([C@@H](C)C1CC1)C2 [Example 143, 2-Amino-N-cyclopropyl-5-{2-[(1S)-1-cyclopropylethyl]-7-(ethylsulfamoyl)-1-oxo-2,3-dihydro-1H-isoindol-5-yl}pyrazolo[1,5-a]pyrimidine-3-carboxamide]",< 100,< 100
"C[C@@H](C1CC1)N1Cc2cc(-c3ccn4nc(N)c(C(=O)NC5CC5)c4n3)cc(S(=O)(=O)N(C)C)c2C1=O [Example 144, 2-Amino-N-cyclopropyl-5-{2-[(1S)-1-cyclopropylethyl]-7-(dimethylsulfamoyl)-1-oxo-2,3-dihydro-1H-isoindol-5-yl}pyrazolo[1,5-a]pyrimidine-3-carboxamide]",< 100,< 100
"C[C@@H](C1CC1)N1Cc2cc(-c3ccn4nc(N)c(C(=O)N[C@H]5CNC(=O)C5)c4n3)cc(O[C@@H]3CCOC3)c2C1=O [Example 145, 2-Amino-5-{2-[(1S)-1-cyclopropylethyl]-1-oxo-7-[(3R)-oxolan-3-yloxy]-2,3-dihydro-1H-isoindol-5-yl}-N-[(3R)-5-oxopyrrolidin-3-yl]pyrazolo[1,5-a]pyrimidine-3-carboxamide]",< 100,< 100
"C[C@@H](C1CC1)N1Cc2cc(-c3ccn4nc(N)c(C(=O)NC5CC5)c4n3)cc(O[C@H]3CCOC3)c2C1=O [Example 146, 2-Amino-N-cyclopropyl-5-{2-[(1S)-1-cyclopropylethyl]-1-oxo-7-[(3S)-oxolan-3-yloxy]-2,3-dihydro-1H-isoindol-5-yl}pyrazolo[1,5-a]pyrimidine-3-carboxamide]",< 100,< 100
"C[C@@H](C1CC1)N1Cc2cc(-c3ccn4nc(N)c(C(=O)N[C@@H](CO)C5CC5)c4n3)cc(O[C@@H]3CCOC3)c2C1=O [Example 147, 2-Amino-N-[(1R)-1-cyclopropyl-2-hydroxyethyl]-5-{2-[(1S)-1-cyclopropylethyl]-1-oxo-7-[(3R)-oxolan-3-yloxy]-2,3-dihydro-1H-isoindol-5-yl}pyrazolo[1,5-a]pyrimidine-3-carboxamide]",< 100,< 100
"C[C@@H](C1CC1)N1Cc2cc(-c3ccn4nc(N)c(C(=O)NC5CC5)c4n3)cc(O[C@@H]3CCOC3)c2C1=O [Example 148, 2-Amino-N-cyclopropyl-5-{2-[(1S)-1-cyclopropylethyl]-1-oxo-7-[(3R)-oxolan-3-yloxy]-2,3-dihydro-1H-isoindol-5-yl}pyrazolo[1,5-a]pyrimidine-3-carboxamide]",< 100,< 100
"C[C@@H](C1CC1)N1Cc2cc(-c3ccn4nc(N)c(C(=O)NC5CC5)c4n3)cc(O[C@H]3CC[C@H](O)CC3)c2C1=O [Example 149, 2-Amino-N-cyclopropyl-5-{2-[(1S)-1-cyclopropylethyl]-1-oxo-7-{[(1R,4R)-4-hydroxycyclohexyl]oxy}-2,3-dihydro-1H-isoindol-5-yl}pyrazolo[1,5-a]pyrimidine-3-carboxamide]",< 100,< 100
"C[C@@H](C1CC1)N1Cc2cc(-c3ccn4nc(N)c(C(=O)NC5CC5)c4n3)cc(N3CC[C@@H](O)C3)c2C1=O [Example 150, 2-Amino-N-cyclopropyl-5-{2-[(1S)-1-cyclopropylethyl]-7-[(3R)-3-hydroxypyrrolidin-1-yl]-1-oxo-2,3-dihydro-1H-isoindol-5-yl}pyrazolo[1,5-a]pyrimidine-3-carboxamide]",< 100,< 100
